Data published in patent EP0575454B1, “USE OF CUCURBITINE FOR THE PREPARATION OF A COSMETIC OR PHARMACEUTICAL, PARTICULARLY DERMATOLOGICAL, ANTIALLERGIC COMPOSITION AND METHOD INVOLVING APPLICATION THEREOF” (PARFUMS CHRISTIAN DIOR, priority 1991, dated 1992).

Experiments:
[1] = test system: histidine décarboxylase (HDC); assay: Enzymatic test: colorimetric assay (MBTH/DMAB) of histidine decarboxylase inhibition, initial reaction rates (Michaelis curves); type: biochemical; conditions: for vitesse initiale: racemic cucurbitine
Excerpt: Ce test est basé sur l'action inhibitrice de la cucurbitine sur l'enzyme histidine décarboxylase (HDC) qui transforme l'histidine en histamine, par rapport à celle de la tritoqualine, qui est un inhibiteur connu de l'HDC (voir Carpi C., Maggi G.C. Bull. Soc Ital. Sper. 1968, 44 (6 543-4), et qui est utilisée en thérapeutique comme hypohistaminémiant sous le non de Hypostamine®.
L'activité inhibitrice sur l'HDC peut être aisément réalisée par un dosage colorimétrique sur la base de la réaction chimique suivante :
MBTH = 3-méthyl-2-benzothiazolinone hydrazone DMAB = 3-(diméthylamino)benzoic acid
En pratique, on observe que la formation de la coloration bleue est proportionnelle à la concentration en histidine consommée. On a ainsi pu définir des vitesses initiales de réaction et établir des courbes dites de Mickaelis comme décrit dans Fundamentals of Enzymology, 2nd Ed. Oxford Univ. Press, 1989.
La vitesse initiale est exprimée en variation d'absorbance par minute.
Les résultats obtenus avec diverses concentrations initiales d'histidine, à savoir à 132 nmol, 265 nmol, et 530 nmol, respectivement sans effecteur, avec tritoqualine comme inhibiteur d'HDC connu, et avec la cucurbitine sous forme racémique comme inhibiteur selon l'invention sont répertoriés au tableau II ci-après et font l'objet de la courbe de Mickaelis, objet de la figure 1. Tableau II

[2] = test system: enzyme HDC; assay: RIA (radioimmunoassay) of the histamine produced by the HDC enzyme; type: biochemical; conditions: for % I (Inhibition) à 5 min / histamine libérée / % I (Inhibition) à 10 min: histidine 16.10^-3 molaire, effector 2.10^-3 molaire; for % I (Inhibition) à 5 min / % I (Inhibition) à 10 min: pH 6,3, 2000 µM; for histamine libérée: phosphate buffer pH 6,3
Excerpt: On peut également mettre en évidence l'activité anti-histaminique de la cucurbitine par un dosage radioimmunologique (Radio Immuno Assay ou "RIA") de la manière suivante.
Ce dosage a lieu en dosant l'histamine directement produite sous l'action de l'enzyme HDC, par la méthode RIA, bien connue à l'homme de l'art, et notamment décrite dans la notice d'utilisation d'un kit de dosage dénommé HISTAMINE Radioimmunoassay kit (Cat. # 1302) commercialisé par la Société IMMUNOTECH (Marseille-France).
On dose au cours du temps La quantité d'histamine libérée (en nanomoles) pour une concentration de 16.10^-3 molaire d'histidine dans un tampon phosphate à pH 6,3, respectivement sans effecteur, avec la tritoqualine comme effecteur de comparaison et avec de la cucurbitine racémique de synthèse comme agent anti-histaminique selon l'invention. La tritoqualine et la cucurbitine sont utilisées à la concentration de 2.10^-3 molaire.
Les résultats obtenus exprimés en nanomoles […] libérée sont répertoriés au tableau III ci-après et font l'objet de la courbe de la figure 2 où l'on a indiqué en ordonnées le nombre de nanomoles d'histamine libérée et en abscisses le temps exprimé en minute. La courbe sans effecteur est tracée en trait continu, la courbe obtenue avec la tritoqualine est tracée en trait mixte et la courbe obtenue avec la cucurbitine est tracée en pointillés. TABLEAU III

| Structure (SMILES) | vitesse initiale ([1]; Histidine 132 nmol) | vitesse initiale ([1]; Histidine 265 nmol) | vitesse initiale ([1]; Histidine 530 nmol) | inhibiteur d'HDC (comparison in words) ([1]; compared with tritoqualine, Table II and figure 1) | % I (Inhibition) à 5 min ([2]; 5 min) [%] | histamine libérée ([2]; 5 min) | % I (Inhibition) à 10 min ([2]; 10 min) [%] | histamine libérée ([2]; 10 min) | activité inhibitrice de la formation d'histamine (comparison in words) ([2]; compared with tritoqualine, after a few minutes) |
| --- | --- | --- | --- | --- | --- | --- | --- | --- | --- |
| NC1(C(=O)O)CCNC1 (racemic) [Cucurbitine, acide 3-amine-3-pyrrolidinecarboxylique] | 0,013 variation d'absorbance par minute | 0,0242 variation d'absorbance par minute | 0,042 variation d'absorbance par minute | beaucoup plus puissant que la tritoqualine | 55 | 14,85 nanomoles | 73 | 38,29 nanomoles | nettement plus puissante que la tritoqualine |
| CCOc1c(N)c2c(c(OCC)c1OCC)C(C1c3c(cc4c(c3OC)OCO4)CCN1C)OC2=O (stereo not shown) [Tritoqualine, tritoqualine, reference compound] | 0,021 variation d'absorbance par minute | 0,0374 variation d'absorbance par minute | 0,0604 variation d'absorbance par minute | – | 49 | 16,48 nanomoles | 65 | 49,27 nanomoles | – |
